Measured values as given in ChEMBL document CHEMBL5131495, “Discovery of unique thiazolidinone-conjugated coumarins as novel broad spectrum antibacterial agents” (Eur J Med Chem, 2022).
Converted amounts (≈) assume the structure as drawn.

Assays:
Format in all cases: functional
Staphylococcus aureus [1] = assay: Antibacterial activity against Staphylococcus aureus assessed as inhibition of bacterial growth
Staphylococcus aureus [2] = assay: Antibacterial activity against methicillin resistant Staphylococcus aureus N315 assessed as inhibition of bacterial growth
Enterococcus faecalis = assay: Antibacterial activity against Enterococcus faecalis assessed as inhibition of bacterial growth
Staphylococcus aureus [3] = assay: Antibacterial activity against Staphylococcus aureus ATCC 25923 assessed as inhibition of bacterial growth
Staphylococcus aureus [4] = assay: Antibacterial activity against Staphylococcus aureus ATCC 29213 assessed as inhibition of bacterial growth
Klebsiella pneumoniae = assay: Antibacterial activity against Klebsiella pneumoniae assessed as inhibition of bacterial growth
Escherichia coli [5] = assay: Antibacterial activity against Escherichia coli assessed as inhibition of bacterial growth
Escherichia coli [6] = assay: Antibacterial activity against Escherichia coli ATCC 25922 assessed as inhibition of bacterial growth
Pseudomonas aeruginosa [7] = assay: Antibacterial activity against Pseudomonas aeruginosa assessed as inhibition of bacterial growth
Pseudomonas aeruginosa [8] = assay: Antibacterial activity against Pseudomonas aeruginosa ATCC 27853 assessed as inhibition of bacterial growth
Acinetobacter baumannii = assay: Antibacterial activity against Acinetobacter baumannii assessed as inhibition of bacterial growth

| SMILES | MIC (Staphylococcus aureus [1]) [µg/mL] | MIC (Staphylococcus aureus [2]) [µg/mL] | MIC (Enterococcus faecalis) [µg/mL] | MIC (Staphylococcus aureus [3]) [µg/mL] | MIC (Staphylococcus aureus [4]) [µg/mL] | MIC (Klebsiella pneumoniae) [µg/mL] | MIC (Escherichia coli [5]) [µg/mL] | MIC (Escherichia coli [6]) [µg/mL] | MIC (Pseudomonas aeruginosa [7]) [µg/mL] | MIC (Pseudomonas aeruginosa [8]) [µg/mL] | MIC (Acinetobacter baumannii) [µg/mL] |
| --- | --- | --- | --- | --- | --- | --- | --- | --- | --- | --- | --- |
| Cc1cc(=O)oc2cc(/N=C3/S/C(=C\c4ccc(Cl)cc4)C(=O)N3CCO)ccc12 | 128 (≈ 290 µM) | 16 (≈ 36.3 µM) | 128 (≈ 290 µM) | 8 (≈ 18.1 µM) | 4 (≈ 9.07 µM) | 128 (≈ 290 µM) | 64 (≈ 145 µM) | 2 (≈ 4.54 µM) | 2 (≈ 4.54 µM) | 8 (≈ 18.1 µM) | 32 (≈ 72.6 µM) |
| Cc1cc(=O)oc2cc(/N=C3/S/C(=C\c4ccc(F)cc4F)C(=O)N3CCO)ccc12 | 32 (≈ 72.3 µM) | 64 (≈ 145 µM) | 2 (≈ 4.52 µM) | 4 (≈ 9.04 µM) | 32 (≈ 72.3 µM) | 64 (≈ 145 µM) | 64 (≈ 145 µM) | 128 (≈ 289 µM) | 64 (≈ 145 µM) | 32 (≈ 72.3 µM) | 64 (≈ 145 µM) |
| Cc1cc(=O)oc2cc(/N=C3/S/C(=C\c4c[nH]c5cc(Cl)ccc45)C(=O)N3CCO)ccc12 | 16 (≈ 33.3 µM) | 8 (≈ 16.7 µM) | 4 (≈ 8.33 µM) | 8 (≈ 16.7 µM) | 64 (≈ 133 µM) | 8 (≈ 16.7 µM) | 8 (≈ 16.7 µM) | 16 (≈ 33.3 µM) | 128 (≈ 267 µM) | 64 (≈ 133 µM) | 4 (≈ 8.33 µM) |
| Cc1cc(=O)oc2cc(/N=C3/S/C(=C\c4ncc[nH]4)C(=O)N3CCO)ccc12 | 8 (≈ 20.2 µM) | 64 (≈ 161 µM) | 64 (≈ 161 µM) | 128 (≈ 323 µM) | 32 (≈ 80.7 µM) | 16 (≈ 40.4 µM) | 32 (≈ 80.7 µM) | 64 (≈ 161 µM) | 32 (≈ 80.7 µM) | 128 (≈ 323 µM) | 16 (≈ 40.4 µM) |
| Cc1cc(=O)oc2cc(/N=C3/S/C(=C\c4nccs4)C(=O)N3CCO)ccc12 | 16 (≈ 38.7 µM) | 64 (≈ 155 µM) | 4 (≈ 9.67 µM) | 1 (≈ 2.42 µM) | 64 (≈ 155 µM) | 2 (≈ 4.84 µM) | 128 (≈ 310 µM) | 256 (≈ 619 µM) | 128 (≈ 310 µM) | 128 (≈ 310 µM) | 1 (≈ 2.42 µM) |
| Cc1cc(=O)oc2cc(/N=C3/S/C(=C\c4cccc(Cl)c4)C(=O)N3CCO)ccc12 | 32 (≈ 72.6 µM) | 8 (≈ 18.1 µM) | 32 (≈ 72.6 µM) | 8 (≈ 18.1 µM) | 32 (≈ 72.6 µM) | 32 (≈ 72.6 µM) | 32 (≈ 72.6 µM) | 64 (≈ 145 µM) | 2 (≈ 4.54 µM) | 1 (≈ 2.27 µM) | 4 (≈ 9.07 µM) |
| CCCCc1nc(Cl)c(/C=C2\S/C(=N/c3ccc4c(C)cc(=O)oc4c3)N(CCO)C2=O)[nH]1 | 8 (≈ 16.4 µM) | 128 (≈ 263 µM) | 128 (≈ 263 µM) | 128 (≈ 263 µM) | 64 (≈ 131 µM) | 64 (≈ 131 µM) | 32 (≈ 65.7 µM) | 64 (≈ 131 µM) | 256 (≈ 526 µM) | 256 (≈ 526 µM) | 64 (≈ 131 µM) |
| Cc1cc(=O)oc2cc(/N=C3\NC(=O)CS3)ccc12 | 32 (≈ 117 µM) | 256 (≈ 933 µM) | 256 (≈ 933 µM) | 64 (≈ 233 µM) | 256 (≈ 933 µM) | 4 (≈ 14.6 µM) | 16 (≈ 58.3 µM) | 128 (≈ 467 µM) | 64 (≈ 233 µM) | 128 (≈ 467 µM) | 256 (≈ 933 µM) |
| Cc1cc(=O)oc2cc(/N=C3/SCC(=O)N3CCO)ccc12 | 128 (≈ 402 µM) | 128 (≈ 402 µM) | 128 (≈ 402 µM) | 16 (≈ 50.3 µM) | 64 (≈ 201 µM) | 128 (≈ 402 µM) | 2 (≈ 6.28 µM) | 64 (≈ 201 µM) | 128 (≈ 402 µM) | 32 (≈ 101 µM) | 0.5 (≈ 1.57 µM) |
| Cc1cc(=O)oc2cc(/N=C3/S/C(=C\c4ccco4)C(=O)N3CCO)ccc12 | 128 (≈ 323 µM) | 8 (≈ 20.2 µM) | 16 (≈ 40.4 µM) | 256 (≈ 646 µM) | 32 (≈ 80.7 µM) | 128 (≈ 323 µM) | 128 (≈ 323 µM) | 4 (≈ 10.1 µM) | 64 (≈ 161 µM) | 32 (≈ 80.7 µM) | 1 (≈ 2.52 µM) |
| Cc1cc(=O)oc2cc(/N=C3/S/C(=C\c4ccccc4F)C(=O)N3CCO)ccc12 | 1 (≈ 2.36 µM) | 4 (≈ 9.42 µM) | 0.25 (≈ 0.589 µM) | 32 (≈ 75.4 µM) | 64 (≈ 151 µM) | 32 (≈ 75.4 µM) | 32 (≈ 75.4 µM) | 16 (≈ 37.7 µM) | 4 (≈ 9.42 µM) | 1 (≈ 2.36 µM) | 16 (≈ 37.7 µM) |
| Cc1cc(=O)oc2cc(/N=C3/S/C(=C\c4csc5ccccc45)C(=O)N3CCO)ccc12 | 128 (≈ 277 µM) | 128 (≈ 277 µM) | 64 (≈ 138 µM) | 256 (≈ 553 µM) | 128 (≈ 277 µM) | 32 (≈ 69.2 µM) | 128 (≈ 277 µM) | 64 (≈ 138 µM) | 128 (≈ 277 µM) | 64 (≈ 138 µM) | 8 (≈ 17.3 µM) |
| Cc1cc(=O)oc2cc(/N=C3/S/C(=C\c4ccc[nH]4)C(=O)N3CCO)ccc12 | 64 (≈ 162 µM) | 64 (≈ 162 µM) | 128 (≈ 324 µM) | 128 (≈ 324 µM) | 64 (≈ 162 µM) | 64 (≈ 162 µM) | 2 (≈ 5.06 µM) | 128 (≈ 324 µM) | 256 (≈ 647 µM) | 32 (≈ 80.9 µM) | 4 (≈ 10.1 µM) |
| Cc1cc(=O)oc2cc(/N=C3/S/C(=C\c4ccc(F)cc4)C(=O)N3CCO)ccc12 | 64 (≈ 151 µM) | 64 (≈ 151 µM) | 32 (≈ 75.4 µM) | 128 (≈ 302 µM) | 16 (≈ 37.7 µM) | 256 (≈ 603 µM) | 128 (≈ 302 µM) | 128 (≈ 302 µM) | 32 (≈ 75.4 µM) | 64 (≈ 151 µM) | 4 (≈ 9.42 µM) |
